Where two headings read alike, the source gives them in different places.
What was measured:
[1] = biological target: T1, hCA IX (Homo sapiens, UniProt Q16790); set-up: made in house; conditions: previously reported thioureas; cited from earlier work
[2] = biological target: T1, hCA IX; experiment: stopped-flow CO2 hydration assay, hCA IX; conditions: for S.I. I/IX: Ki (CA I)/Ki (CA IX); for S.I. II/IX: Ki (CA II)/Ki (CA IX)
Method: (§3) The panel of CA-directed compounds prepared herein were assessed in vitro against a series of isoforms of human CA with relevant therapeutic interest.
(§4) The choice of such isoforms will provide information about selectivity against tumour-associated CA IX and XII compared to other relevant CAs.
(§5) The inhibitory properties of title compounds against CAs were determined using the stopped-flow CO2 hydrase assay, as previously reported [46].

[3] = biological target: hCA XII (Homo sapiens, UniProt O43570); experiment: stopped-flow CO2 hydration assay, hCA XII; conditions: for S.I. I/XII: Ki (CA I)/Ki (CA XII); for S.I. II/XII: Ki (CA II)/Ki (CA XII)
Method: as §3, §4, §5

[4] = biological target: hCA IV (Homo sapiens, UniProt P22748); experiment: stopped-flow CO2 hydration assay, hCA IV; conditions: mean from three assays, errors ±5–10%
Method: as §3, §4, §5

[5] = biological target: hCA I (Homo sapiens, UniProt P00915); experiment: stopped-flow CO2 hydration assay, hCA I
Method: as §3, §4, §5

[6] = biological target: hCA II (Homo sapiens, UniProt P00918); experiment: stopped-flow CO2 hydration assay, hCA II
Method: as §3, §4, §5

[7] = system: panel of six human solid tumour cell lines (A549, HBL-100, HeLa, SW1573, T-47D, WiDr); experiment: antiproliferative assay (NCI protocol), whole panel; assay type: cell-based
Excerpt: (§1) The compounds prepared herein were subjected to in vitro testing as potential antiproliferative agents against a panel of six human solid tumour cell lines, following minor modifications of the protocol from the US National Cancer Institute (NCI). They can be categorized into two groups: drug-sensitive cell lines (A549, HBL-100, HeLa, SW1573) and multidrug resistant cell lines (T-47D, WiDr). […] Ph-derived thiourea 21e and imidazolidine-2-thione 24f were not included in the study.
(§2) Minor modifications of the US National Cancer Institute (NCI) protocol were used.

[8] = system: A549 (Lung, Non-Small); experiment: antiproliferative assay (NCI protocol), A549; assay type: cell-based; conditions: Homo sapiens, drug-sensitive cell line, mean ± SD
Excerpt: as §1, §2

[9] = system: HBL-100 (Breast); experiment: antiproliferative assay (NCI protocol), HBL-100; assay type: cell-based; conditions: Homo sapiens, drug-sensitive cell line, mean ± SD
Excerpt: as §1, §2

[10] = system: HeLa (Cervix); experiment: antiproliferative assay (NCI protocol), HeLa; assay type: cell-based; conditions: Homo sapiens, drug-sensitive cell line, mean ± SD
Excerpt: as §1, §2

[11] = system: SW1573 (Lung, Non-Small); experiment: antiproliferative assay (NCI protocol), SW1573; assay type: cell-based; conditions: Homo sapiens, drug-sensitive cell line, mean ± SD
Excerpt: as §1, §2

[12] = system: T-47D (Breast); experiment: antiproliferative assay (NCI protocol), T-47D; assay type: cell-based; conditions: Homo sapiens, T47D; multidrug-resistant cell line, mean ± SD
Excerpt: as §1, §2

[13] = system: WiDr (Colon); experiment: antiproliferative assay (NCI protocol), WiDr; assay type: cell-based; conditions: Homo sapiens, multidrug-resistant cell line, mean ± SD
Excerpt: as §1, §2

hCA IV, sequence (P22748 19-312): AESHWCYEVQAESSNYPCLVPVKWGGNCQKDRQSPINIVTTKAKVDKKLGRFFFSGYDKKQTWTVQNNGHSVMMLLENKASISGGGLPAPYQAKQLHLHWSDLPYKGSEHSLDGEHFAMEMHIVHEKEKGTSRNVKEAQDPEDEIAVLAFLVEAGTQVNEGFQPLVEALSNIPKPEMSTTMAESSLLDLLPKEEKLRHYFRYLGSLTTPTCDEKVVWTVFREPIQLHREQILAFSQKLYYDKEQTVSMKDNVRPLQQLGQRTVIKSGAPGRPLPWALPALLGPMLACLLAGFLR
hCA I, sequence (P00915 whole entry): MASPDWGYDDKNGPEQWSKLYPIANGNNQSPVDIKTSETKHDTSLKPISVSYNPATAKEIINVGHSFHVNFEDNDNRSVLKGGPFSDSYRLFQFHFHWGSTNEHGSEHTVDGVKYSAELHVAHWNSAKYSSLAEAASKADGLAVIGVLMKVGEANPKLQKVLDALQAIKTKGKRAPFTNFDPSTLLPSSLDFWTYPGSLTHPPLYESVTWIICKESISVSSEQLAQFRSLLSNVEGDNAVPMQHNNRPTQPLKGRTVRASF
hCA XII, sequence (O43570 25-354): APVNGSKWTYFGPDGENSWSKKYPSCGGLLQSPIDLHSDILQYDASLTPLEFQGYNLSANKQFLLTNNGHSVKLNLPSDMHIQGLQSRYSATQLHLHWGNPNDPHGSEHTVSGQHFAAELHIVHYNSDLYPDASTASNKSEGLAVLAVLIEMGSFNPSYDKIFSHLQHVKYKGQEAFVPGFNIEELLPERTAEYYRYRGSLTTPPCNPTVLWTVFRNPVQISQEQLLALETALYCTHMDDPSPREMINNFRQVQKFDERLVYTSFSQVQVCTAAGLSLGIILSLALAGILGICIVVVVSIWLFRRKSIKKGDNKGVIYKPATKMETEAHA

SMILES: NS(=O)(=O)c1ccc(NC(=S)N[C@H]2C(O)O[C@H](CO)[C@H](O)[C@@H]2O)cc1 (stereo partly shown) [Compound 4a]
- Ki [1]: 74 nM
- S.I. I/IX [2]: 48.6
- S.I. II/IX [2]: 104

SMILES: NS(=O)(=O)c1ccc(CCNC(=S)N[C@@H]2O[C@H](CO)[C@H](O)[C@H](O)[C@H]2O)cc1 [Compound 2c]
- S.I. I/IX [2]: 2067.9
- S.I. II/IX [2]: 3.3
- S.I. I/XII [3]: 568
- S.I. II/XII [3]: 0.9

SMILES: NS(=O)(=O)c1ccc(N2C(=S)NC3C(O)C(C(O)CO)OC32)cc1 [Compound 8a, 1-(4′-Sulfonamidophenyl)-(1″,2″-dideoxy-α-D-glucofurano)[2,1-d]imidazolidine-2-thione]
- Ki [4]: 348 nM

SMILES: Cc1cc(=O)oc2cc(OCCCCCCN3C(=S)NC4C(O)C(C(O)CO)OC43)ccc12 [Compound 26, 1-{4′-[7″-(4″-Methyl-2″-oxo-2″H-chromen-7″-yl)oxy]hexyl}-(1‴,2‴-dideoxy-α-D-galactofurano)[2,1-d]imidazolidine-2-thione]
- Ki [5]: > 100 µM
- Ki [6]: > 100 µM

SMILES: NS(=O)(=O)c1ccc(NC(=S)NC2C(O)OC(CO)C(O)C2O)cc1 (stereo not shown) [Compound 3a]
- Ki [1]: 77 nM
- S.I. I/IX [2]: 35.1
- S.I. II/IX [2]: 126

SMILES: NS(=O)(=O)c1cccc(N2C(=S)NC3C(O)C(C(O)CO)OC32)c1 [Compound 9b, 1-(3′-Sulfonamidophenyl)-(1″,2″-dideoxy-α-D-galactofurano)[2,1-d]imidazolidine-2-thione]
- Ki [4]: 27300 nM

SMILES: O=c1cc(-c2ccccc2)c2ccc(OCCCCCCN3C(=S)N[C@@H]4[C@@H](O)[C@@H]([C@H](O)CO)O[C@@H]43)cc2o1 [Compound 24f, 1-{6′-[7″-(4″-Phenyl-2″-oxo-2″H-chromen-7″-yl)oxy]hexyl}-(1‴,2‴-dideoxy-α-D-glucofurano)[2,1-d]imidazolidine-2-thione]
- GI50 ([7]; maximum concentration tested 100 µM, read-out: GI50, all tested cell lines): > 100 µM

SMILES: O=c1cc(-c2ccccc2)c2ccc(OCCCCN3C(=S)N[C@@H]4[C@@H](O)[C@@H]([C@H](O)CO)O[C@@H]43)cc2o1 [Compound 24e, 1-{4′-[7″-(4″-Phenyl-2″-oxo-2″H-chromen-7″-yl)oxy]butyl}-(1‴,2‴-dideoxy-α-D-glucofurano)[2,1-d]imidazolidine-2-thione]
- GI50 [8]: 64 ± 31 µM
- GI50 [9]: 23 ± 0.8 µM
- GI50 [10]: 31 ± 0.2 µM
- GI50 [11]: 5.7 ± 1.8 µM
- GI50 [12]: 70 ± 23 µM
- GI50 [13]: 47 ± 11 µM

SMILES: NS(=O)(=O)c1cccc(N2C(=S)NC3C(O)C(C(O)CO)OC32)c1 [Compound 8b, 1-(3′-Sulfonamidophenyl)-(1″,2″-dideoxy-α-D-glucofurano)[2,1-d]imidazolidine-2-thione]
- Ki [4]: 45.1 nM

SMILES: CO[C@H]1O[C@H](CO)[C@@H](O)[C@H](O)[C@H]1NC(=S)NCCCCOc1ccc2c(-c3ccccc3)cc(=O)oc2c1 [Compound 21e, N-(Methyl 2-deoxy-α-D-glucopyranosid-2-yl)-N′-{4′-[7″-(4″-phenyl-2″-oxo-2″H-chromen-7″-yl)oxy]butyl}thiourea]
- melting point: 165 °C
- Ki [5]: > 100 µM
- Ki [6]: > 100 µM
- Ki [2]: 106 nM
- S.I. I/IX [2]: >945
- S.I. II/IX [2]: >945
- Ki [3]: 228 nM
- S.I. I/XII [3]: >439
- S.I. II/XII [3]: >439

SMILES: NS(=O)(=O)c1ccc(NC(=S)N[C@@H]2O[C@H](CO)[C@@H](O)[C@H](O)[C@H]2O)cc1 [Compound 1a]
- S.I. I/IX [2]: 27.2
- S.I. II/IX [2]: 0.02
- S.I. I/XII [3]: 937
- S.I. II/XII [3]: 0.9

SMILES: NS(=O)(=O)c1ccc(N2C(=S)NC3C(O)C(C(O)CO)OC32)cc1 [Compound 9a, 1-(4′-Sulfonamidophenyl)-(1″,2″-dideoxy-α-D-galactofurano)[2,1-d]imidazolidine-2-thione]
- Ki [4]: 4570 nM

SMILES: CO[C@H]1O[C@H](CO)[C@@H](O)[C@H](O)[C@H]1NC(=S)Nc1ccc2c(C)cc(=O)oc2c1 [Compound C00016]
- GI50 [8]: 79 ± 36 µM
- GI50 [9]: 86 ± 25 µM
- GI50 [10]: 83 ± 30 µM
- GI50 [11]: 79 ± 37 µM
- GI50 [12]: > 100 µM
- GI50 [13]: > 100 µM

SMILES: NS(=O)(=O)c1cccc(NC(=S)NC2C(O)OC(CO)C(O)C2O)c1 (stereo not shown) [Compound 3b]
- Ki [1]: 9 nM

SMILES: Cc1cc(=O)oc2cc(OCCCCCCN3C(=S)N[C@@H]4[C@@H](O)[C@@H]([C@H](O)CO)O[C@@H]43)ccc12 [Compound 24c, 1-{6′-[7″-(4″-Methyl-2″-oxo-2″H-chromen-7″-yl)oxy]hexyl}-(1‴,2‴-dideoxy-α-D-glucofurano)[2,1-d]imidazolidine-2-thione]
- Ki [5]: > 100 µM
- Ki [6]: > 100 µM

SMILES: NS(=O)(=O)c1cccc(NC(=S)N[C@H]2C(O)O[C@H](CO)[C@H](O)[C@@H]2O)c1 (stereo partly shown) [Compound 4b]
- Ki [1]: 42 nM
- S.I. I/IX [2]: 102.4
- S.I. II/IX [2]: 22.4

SMILES: CO[C@H]1O[C@H](CO)[C@@H](O)[C@H](O)[C@H]1NC(=S)NCCCCCCOc1ccc2c(-c3ccccc3)cc(=O)oc2c1 [Compound 21f, N′-(Methyl 2-deoxy-α-D-glucopyranosid-2-yl)-N′-{6′-[7″-(4″-phenyl-2″-oxo-2″H-chromen-7″-yl)oxy]hexyl}thiourea]
- GI50 [8]: 34 ± 4 µM
- GI50 [9]: 23 ± 3.2 µM
- GI50 [10]: 25 ± 8 µM
- GI50 [11]: 9.7 µM
- GI50 [12]: 30 ± 7.4 µM
- GI50 [13]: 36 ± 16 µM
- GI50 ([7]; the five cell lines other than SW1573, read-out: GI50, other five lines): 23 to 36 µM
- melting point: 148 °C
- Ki [5]: > 100 µM
- Ki [6]: 17.3 µM
- Ki [2]: 116 nM
- S.I. I/IX [2]: >858
- S.I. II/IX [2]: 148
- Ki [3]: 164 nM
- S.I. I/XII [3]: >610
- S.I. II/XII [3]: 106

SMILES: NS(=O)(=O)c1ccc(CCN2C(=S)NC3C(O)C(C(O)CO)OC32)cc1 [Compound 8c, 1-[2′-(4″-Sulfonamidophenyl)]ethyl-(1‴,2‴-dideoxy-α-D-glucofurano)[2,1-d]imidazolidine-2-thione]
- Ki [4]: 1050 nM

SMILES: NS(=O)(=O)c1ccc(NC(=S)N[C@@H]2O[C@H](CO)[C@H](O)[C@H](O)[C@H]2O)cc1 [Compound 2a]
- S.I. I/IX [2]: 977.1
- S.I. II/IX [2]: 31.7
- S.I. I/XII [3]: 340
- S.I. II/XII [3]: 11.0

SMILES: NS(=O)(=O)c1ccc(CCNC(=S)N[C@@H]2O[C@H](CO)[C@@H](O)[C@H](O)[C@H]2O)cc1 [Compound 1c]
- S.I. I/IX [2]: 1.0
- S.I. II/IX [2]: 12.4
- S.I. I/XII [3]: 0.9
- S.I. II/XII [3]: 11.1

Source: PMC10253577, “Conformationally Restricted Glycoconjugates Derived from Arylsulfonamides and Coumarins: New Families of Tumour-Associated Carbonic Anhydrase Inhibitors” (International Journal of Molecular Sciences, 2023)
